Assay results: US11279687B2, “Compounds and compositions for the inhibition of NAMPT” (Valo Health, Inc., priority 2010, dated 2022)
Where two headings read alike, the source gives them in different places.

How the values were obtained:
[1] = test system: A2780 cells; assay: In-vitro cell proliferation assay (SRB), A2780 cells; assay type: cell-based; conditions: A2780 cells, 72 hours, SRB, read-out: A2780 IC50;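 note: viable cell number read as SRB absorbance, background from media-only wells subtracted, IC50 interpolated from percent inhibition at two bracketing compound concentrations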
[2] = test system: A2780 cells; assay: A2780 xenograft study in mice; assay type: in vivo, C.B-17-Igh-1b-Prkdc^scid mice; conditions: female SCID mice, s.c. A2780 tumors, p.o. BID for 5 or 10 days, dose selected from MTD study
Experimental: C.B-17-Igh-1b-Prkdc^scid mice (female) were injected s.c. with 5×10^6 A2780 cells (NCI) in the left flank. 10-12 days later when tumors reached 100-200 mm3 in size, mice were randomized into treatment groups of 8 mice per group including vehicle control and reference standard groups. The compounds were formulated in 60:30:10 PEG-400:D5W: Ethanol and administered p.o., at the dose volume of 10 ml/kg BID for a duration of 5 or 10 days. The dose used for efficacy was selected from the MTD (Maximum Tolerated Dose) study. Mice were weighed and tumors measured using vernier calipers every alternate day. Tumor volume was calculated according to the formula (length×width^2)/2. All animal work was approved by the Institutional Animal Care and Use Committee of Biological Resource Centre, Singapore.

[3] = target: NAMPT (Homo sapiens (Human), UniProt P43490); assay: NAMPT biochemical inhibition assay (NMN quantified by mass spectrometry); conditions: NAMPT biochemical inhibition; read-out: Biochem IC50
NAMPT, sequence (P43490 whole entry): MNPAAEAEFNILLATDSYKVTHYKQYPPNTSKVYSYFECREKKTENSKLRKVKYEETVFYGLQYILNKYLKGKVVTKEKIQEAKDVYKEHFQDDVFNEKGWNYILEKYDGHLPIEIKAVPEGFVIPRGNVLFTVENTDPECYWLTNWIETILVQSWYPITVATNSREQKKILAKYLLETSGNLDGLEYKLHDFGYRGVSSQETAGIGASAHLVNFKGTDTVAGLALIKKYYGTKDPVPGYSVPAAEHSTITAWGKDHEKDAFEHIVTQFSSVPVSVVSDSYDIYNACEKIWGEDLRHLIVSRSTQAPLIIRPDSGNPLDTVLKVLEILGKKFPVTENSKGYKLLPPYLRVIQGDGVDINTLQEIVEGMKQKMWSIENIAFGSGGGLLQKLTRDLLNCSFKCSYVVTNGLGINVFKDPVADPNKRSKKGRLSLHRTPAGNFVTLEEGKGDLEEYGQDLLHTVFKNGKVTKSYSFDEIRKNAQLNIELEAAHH

IC50 ([1]; Homo sapiens, A2780, 72 h) [nM]	IC50 [3] [nM]	Structure (SMILES)	effect on tumor growth in A2780 xenograft [2]	IC50 [1] [nM]
156	2	CN(Cc1cccc(F)c1)S(=O)(=O)c1ccc(NC(=O)NCc2cccnc2)cc1 [3-(4-{[(3-fluorophenyl)methyl](methyl)sulfamoyl}phenyl)-1-(pyridin-3-ylmethyl)urea]		
287	5	Cc1cc(F)ccc1S(=O)(=O)c1ccc(NC(=O)NCc2cccnc2)cc1 [3-{4-[(4-fluoro-2-methylbenzene)sulfonyl]phenyl}-1-(pyridin-3-ylmethyl)urea]		
1000 to 10000	14.4	CC(=O)c1ccc(NS(=O)(=O)c2ccc(NC(=O)NCc3cccnc3)cc2)cc1 [3-{4-[(4-acetylphenyl)sulfanoyl]phenyl}-1-(pyridin-3-ylmethyl)urea]		
63.5	3	Cn1c(S(=O)(=O)c2ccc(NC(=O)NCc3cccnc3)cc2)cc2ccccc21 [3-[4-(1-methyl-1H-indole-2-sulfonyl)phenyl]-1-(pyridin-3-ylmethyl)urea]		
216	80.5	O=C(NCc1cccnc1)c1ccc(S(=O)(=O)c2ccccc2)cc1 [4-(benzenesulfonyl)-N-(pyridin-3-ylmethyl)benzamide]		
850	20	Cc1noc(C)c1S(=O)(=O)c1ccc(NC(=O)NCc2cccnc2)cc1 [3-[4-(3,5-dimethyl-1,2-oxazole-4-sulfonyl)phenyl]-1-(pyridin-3-ylmethyl)urea]		
100 to 1000	6.8	O=C(NCc1cccnc1)Nc1ccc(S(=O)(=O)c2cccc(-c3ccccc3)c2)cc1 [1-{4-[(3-phenylbenzene)sulfonyl]phenyl}-3-(pyridin-3-ylmethyl)urea]		
2360	15	O=C(NCc1cccnc1)Nc1ccc(S(=O)(=O)c2ccccc2)nc1 [1-[6-(benzenesulfonyl)pyridin-3-yl]-3-(pyridin-3-ylmethyl)urea]		
100 to 1000	3.7	Cc1cc(S(=O)(=O)c2ccc(NC(=O)NCc3cccnc3)cc2)ccc1F [3-{4-[(4-fluoro-3-methylbenzene)sulfonyl]phenyl}-1-(pyridin-3-ylmethyl)urea]		
100 to 1000	14.4	Cn1ncc2cccc(S(=O)(=O)c3ccc(NC(=O)NCc4cccnc4)cc3)c21 [3-[4-(1-methyl-1H-indazole-7-sulfonyl)phenyl]-1-(pyridin-3-ylmethyl)urea]		
100 to 1000	8.7	COc1ncc(S(=O)(=O)c2ccc(NC(=O)NCc3cccnc3)cc2)cn1 [3-[4-(2-methoxypyrimidine-5-sulfonyl)phenyl]-1-(pyridin-3-ylmethyl)urea]		
41	1	Cc1cc(C)cc(NS(=O)(=O)c2ccc(NC(=O)NCc3cccnc3)cc2)c1 [3-{4-[(3,5-dimethylphenyl)sulfamoyl]phenyl}-1-(pyridin-3-ylmethyl)urea]		
322	2	O=C(NCc1cccnc1)Nc1ccc(S(=O)(=O)c2cccc(Br)c2)cc1 [3-{4-[(3-bromobenzene)sulfonyl]phenyl}-1-(pyridin-3-ylmethyl)urea]		
100 to 1000	11.8	Cc1cc(C(F)(F)F)ccc1S(=O)(=O)c1ccc(NC(=O)NCc2cccnc2)cc1 [3-(4-{[2-methyl-4-(trifluoromethyl)benzene]sulfonyl}phenyl)-1-(pyridin-3-ylmethyl)urea]		
100 to 1000	1	CCOCc1ccc(S(=O)(=O)c2ccc(NC(=O)NCc3cccnc3)cc2)cc1 [3-(4-{[4-(ethoxymethyl)benzene]sulfonyl[phenyl)-1-(pyridin-3-ylmethyl)urea]		
		O=C(NCc1cccnc1)Nc1ccc(S(=O)(=O)c2ccccc2)cc1 [3-[4-(benzenesulfonyl)phenyl]-1-(pyridin-3-ylmethyl)urea]	tumor stasis	
180	29	O=C(NCc1cccnc1)Nc1ccc(S(=O)(=O)NC2(c3ccccc3)CCCC2)cc1 [1-{4-[(1-phenylcyclopentyl)sulfamoyl]phenyl}-3-(pyridin-3-ylmethyl)urea]		
100 to 1000	5.9	CN(C)c1ncc(S(=O)(=O)c2ccc(NC(=O)NCc3cccnc3)cc2)cn1 [3-{4-[2-(dimethylamino)pyrimidine-5-sulfonyl]phenyl}-1-(pyridin-3-ylmethyl)urea]		
96	5	COc1cc(NS(=O)(=O)c2ccc(NC(=O)NCc3cccnc3)cc2)cc(OC)c1 [3-{4-[(3,5-dimethoxyphenyl)sulfamoyl]phenyl}-1-(pyridin-3-ylmethyl)urea]		
99	4	O=C(NCc1cccnc1)Nc1ccc(S(=O)(=O)N2CCN(CC(=O)N3CCCC3)CC2)cc1 [1-(4-{4-[2-oxo-2-(pyrrolidin-1-yl)ethyl]piperazine-1-sulfonyl}phenyl)-3-(pyridin-3-ylmethyl)urea]		
3.54	19.2	COc1cccc(S(=O)(=O)c2ccc(C(=O)NCc3ccc4nccn4c3)cc2)c1 [N-{imidazo[1,2-a]pyridin-6-ylmethyl}-4-[(3-methoxybenzene)sulfonyl]benzamide]		

Structure (SMILES)	IC50 ([1]; Homo sapiens, A2780, 72 h) [nM]	IC50 [3] [nM]	effect on tumor growth in A2780 xenograft [2]	IC50 [1] [nM]
C[C@@H]1CN(S(=O)(=O)c2ccc(NC(=O)NCc3cccnc3)cc2)C[C@H](C)O1 [3-{4-[(2R,6S)-2,6-dimethylmorpholine-4-sulfonyl]phenyl}-1-(pyridin-3-ylmethyl)urea]	9		delayed tumor growth	
O=C(NCc1cccnc1)Nc1ccc(S(=O)(=O)N2CC3CCC(C2)O3)cc1 [1-(4-{8-oxa-3-azabicyclo[3.2.1]octane-3-sulfonyl}phenyl)-3-(pyridin-3-ylmethyl)urea]	29		tumor regression	
O=C(NCc1cccnc1)Nc1ccc(S(=O)(=O)N[C@H]2C[C@@H]3CC[C@H]2C3)cc1 [1-(4-{[(1S,2S,4R)-bicyclo[2.2.1]heptan-2-yl]sulfamoyl}phenyl)-3-(pyridin-3-ylmethyl)urea]	46	7	delayed tumor growth	
O=C(NCc1cccnc1)Nc1ccc(S(=O)(=O)Nc2cccc3ccccc23)cc1 [1-{4-[(naphthalen-1-yl)sulfamoyl]phenyl}-3-(pyridin-3-ylmethyl)urea]	19	1	delayed tumor growth	
COc1cccc(NS(=O)(=O)c2ccc(NC(=O)NCc3cccnc3)cc2)c1C [3-{4-[(3-methoxy-2-methylphenyl)sulfamoyl]phenyl}-1-(pyridin-3-ylmethyl)urea]	57	2	delayed tumor growth	
COc1cc(Cl)c(C)cc1NS(=O)(=O)c1ccc(NC(=O)NCc2cccnc2)cc1 [3-{4-[(4-chloro-2-methoxy-5-methylphenyl)sulfamoyl]phenyl}-1-(pyridin-3-ylmethyl)urea]	6	1	tumor stasis	
O=C(NCc1cccnc1)Nc1ccc(S(=O)(=O)N2CCC(N3CCOCC3)CC2)cc1 [1-{4-[4-(morpholin-4-yl)piperidine-1-sulfonyl]phenyl}-3-(pyridin-3-ylmethyl)urea]	13	9	delayed tumor growth	
COc1ccc(C(F)(F)F)cc1NS(=O)(=O)c1ccc(NC(=O)NCc2cccnc2)cc1 [3-(4-{[2-methoxy-5-(trifluoromethyl)phenyl]sulfamoyl}phenyl)-1-(pyridin-3-ylmethyl)urea]	2	0.1	delayed tumor growth	
COc1ccc(Cl)cc1NS(=O)(=O)c1ccc(NC(=O)NCc2cccnc2)cc1 [3-{4-[(5-chloro-2-methoxyphenyl)sulfamoyl]phenyl}-1-(pyridin-3-ylmethyl)urea]	3	0.9	delayed tumor growth	
O=C(NCc1ccc2nccn2c1)Nc1ccc(S(=O)(=O)c2ccccc2)cc1 [1-[4-(benzenesulfonyl)phenyl]-3-{imidazo[1,2-a]pyridin-6-ylmethyl}urea]	33		delayed tumor growth	
C[C@@H]1CN(S(=O)(=O)c2ccc(NC(=O)NCc3ccc4nccn4c3)cc2)C[C@H](C)O1 [1-{4-[(2R,6S)-2,6-dimethylmorpholine-4-sulfonyl]phenyl}-3-{imidazo[1,2-a]pyridin-6-ylmethyl}urea]	25	8	delayed tumor growth	
O=C(NCc1cccnc1)Nc1ccc(S(=O)(=O)c2ccc(F)cc2)cc1 [3-{4-[(4-fluorobenzene)sulfonyl]phenyl}-1-(pyridin-3-ylmethyl)urea]	171	4	delayed tumor growth	
O=C(NCc1cccnc1)Nc1ccc(S(=O)(=O)Nc2ccc(Cl)cc2OC(F)(F)F)cc1 [3-(4-{[4-chloro-2-(trifluoromethoxy)phenyl]sulfamoyl[phenyl)-1-(pyridin-3-ylmethyl)urea]		6		113
CN(C)C(=O)c1cccc(S(=O)(=O)c2ccc(NC(=O)NCc3cccnc3)cc2)c1 [N,N-dimethyl-3-[(4-{[(pyridin-3-ylmethyl)carbamoyl]amino[benzene)sulfonyl]benzamide]		7.4		100 to 1000
